Measured values published in paper PMC10999543, “Identification of kinase modulators as host-directed therapeutics against intracellular methicillin-resistant Staphylococcus aureus” (Frontiers in Cellular and Infection Microbiology, 2024).
Like-named read-outs stand apart in the source and are kept apart here.

Key:
intracellular MRSA = assay type: cell-based, Staphylococcus aureus; settings: for %GFP+ rep 1 / z-scoreMRSA+ rep 1: replicate 1; for %GFP+ rep 2 / z-scoreMRSA+ rep 2: replicate 2; for %GFP+ rep 3 / z-scoreMRSA+ rep 3: replicate 3; for z-scoreMRSA+ mean: mean of 3 replicates
Summary of the method: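 HeLa cells infected with GFP-MRSA (MOI ~6.8), gentamicin-cleared, then incubated overnight at 37°C with inhibitors plus 5 µg/ml gentamicin; DMSO as negative control, triplicates. Flow cytometry gave % GFP-positive cells and cell count (viability surrogate); hits by plate z-score (MRSA ≤ -2, HeLa count ≥ -3).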

HeLa cells = assay: Compound screen by flow cytometry: HeLa cell count as surrogate readout of cell viability (z-scoreHeLa); assay type: cell-based, human; settings: for cell count rep 1 / z-scoreHeLa rep 1: replicate 1; for cell count rep 2 / z-scoreHeLa rep 2: replicate 2; for cell count rep 3 / z-scoreHeLa rep 3: replicate 3; for z-scoreHeLa mean: mean of 3 replicates
Summary of the method: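 HeLa cells were infected with GFP-MRSA (mean MOI 6.8 ± 4.6) for 1 h, and extracellular bacteria were killed with 30 µg/ml gentamicin. Cells were then incubated overnight with kinase inhibitors in 5 µg/ml gentamicin, in triplicate against DMSO controls. Flow-cytometric cell count served as a viability surrogate, expressed as a plate z-score.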

[1] = PKIS compound screen raw data, MRSA-infected HeLa cells
[2] = Yes/No: effect without cell death
[3] = compound screen, MRSA-infected HeLa cells
[4] = PKIS compound screen raw data, HeLa cell count
[5] = compound screen, HeLa cell count
[6] = PKIS compounds raw data, MRSA-infected HeLa cells
[7] = PKIS compounds raw data, HeLa cell count
[8] = PKIS compound screen, MRSA-infected HeLa cells
[9] = PKIS compound screen, Yes/No call (effect without cell death)
[10] = PKIS compound screen, HeLa cell count
[11] = PKIS compound screen, Yes/No call

Row | SMILES | %GFP+ rep 1 (intracellular MRSA; [1]) [%] | %GFP+ rep 2 (intracellular MRSA; [1]) [%] | %GFP+ rep 3 (intracellular MRSA; [1]) [%] | effect (intracellular MRSA; Yes/No call from z-scoreMRSA+) | hit (intracellular MRSA; [2]) | z-scoreMRSA+ mean (intracellular MRSA; [3]) | z-scoreMRSA+ rep 1 (intracellular MRSA; [3]) | z-scoreMRSA+ rep 2 (intracellular MRSA; [3]) | z-scoreMRSA+ rep 3 (intracellular MRSA; [3]) | cell death (HeLa cells; Yes/No call from z-scoreHeLa) | z-scoreHeLa mean (HeLa cells; [5]) | z-scoreHeLa rep 1 (HeLa cells; [5]) | z-scoreHeLa rep 2 (HeLa cells; [5]) | z-scoreHeLa rep 3 (HeLa cells; [5]) | %GFP+ rep 1 (intracellular MRSA; [6]) [%] | %GFP+ rep 2 (intracellular MRSA; [6]) [%] | %GFP+ rep 3 (intracellular MRSA; [6]) [%] | cell count rep 1 (HeLa cells; [7]) | cell count rep 2 (HeLa cells; [7]) | cell count rep 3 (HeLa cells; [7]) | other results
1 | Nc1nccc2scc(-c3ccc4c(c3)CCN4C(=O)Cc3ccccc3)c12 [GSK2576924A] | 25.5 | 24.3 | 22.9 | No | No | 0.22 | 0.05 | 0.41 | 0.21 | No | -1.02 | -0.97 | -0.95 | -1.13 | – | – | – | – | – | – | cell count rep 1 (HeLa cells; [4]): 3006; cell count rep 2 (HeLa cells; [4]): 3066; cell count rep 3 (HeLa cells; [4]): 3447
2 | Nc1ncc(-c2ccncc2)c2scc(-c3ccc4c(c3)CCN4C(=O)Cc3ccccc3)c12 [GSK2592465A] | 23.8 | 25.0 | 22.8 | No | No | 0.14 | -0.34 | 0.58 | 0.18 | No | 0.25 | 0.40 | 0.26 | 0.10 | – | – | – | – | – | – | cell count rep 1 (HeLa cells; [4]): 4912; cell count rep 2 (HeLa cells; [4]): 4633; cell count rep 3 (HeLa cells; [4]): 5392
3 | Cn1cc(-c2cnc(N)c3c(-c4ccc5c(c4)CCN5C(=O)Cc4ccccc4)csc23)cn1 [GSK2593074A] | – | – | – | No | No | 2.45 | 3.72 | 2.64 | 0.98 | Yes | -3.02 | -3.54 | -2.95 | -2.56 | 24.8 | 21.4 | 19.2 | 857 | 369 | 1620 | –
4 | Cc1ccccc1CC(=O)N1CCc2cc(-c3cn(C)c4ncnc(N)c34)ccc21 [GSK2603346A] | 20.6 | 20.8 | 20.5 | – | – | – | – | – | – | – | – | – | – | – | – | – | – | – | – | – | z-scoreMRSA+ mean (intracellular MRSA; [8]): 0.59; z-scoreMRSA+ rep 1 (intracellular MRSA; [8]): 0.87; z-scoreMRSA+ rep 2 (intracellular MRSA; [8]): 0.68; z-scoreMRSA+ rep 3 (intracellular MRSA; [8]): 0.22; hit (intracellular MRSA; [9]): No; effect (intracellular MRSA; PKIS compound screen, Yes/No call on z-scoreMRSA+): No; cell count rep 1 (HeLa cells; [4]): 19984; cell count rep 2 (HeLa cells; [4]): 27840; cell count rep 3 (HeLa cells; [4]): 38532; z-scoreHeLa mean (HeLa cells; [10]): -0.54; z-scoreHeLa rep 1 (HeLa cells; [10]): -0.02; z-scoreHeLa rep 2 (HeLa cells; [10]): -1.30; z-scoreHeLa rep 3 (HeLa cells; [10]): -0.32; cell death (HeLa cells; PKIS compound screen, Yes/No call on z-scoreHeLa): No
5 | Cn1cc(-c2ccc3c(c2)CCN3C(=O)Cc2cccc(F)c2)c2c(N)ncnc21 [GSK2603358A] | – | – | – | – | – | – | – | – | – | – | – | – | – | – | 26.9 | 29.5 | 30.6 | 5847 | 6919 | 8427 | effect (intracellular MRSA; [11]): No; hit (intracellular MRSA; [9]): No; z-scoreMRSA+ mean (intracellular MRSA; PKIS compound screen): 0.42; z-scoreMRSA+ rep 1 (intracellular MRSA; PKIS compound screen): -0.03; z-scoreMRSA+ rep 2 (intracellular MRSA; PKIS compound screen): 0.66; z-scoreMRSA+ rep 3 (intracellular MRSA; PKIS compound screen): 0.62; cell death (HeLa cells; [11]): No; z-scoreHeLa mean (HeLa cells; PKIS compound screen): 0.76; z-scoreHeLa rep 1 (HeLa cells; PKIS compound screen): -0.12; z-scoreHeLa rep 2 (HeLa cells; PKIS compound screen): 0.60; z-scoreHeLa rep 3 (HeLa cells; PKIS compound screen): 1.79
6 | Cn1cc(-c2ccc3c(c2)CCN3C(=O)Cc2ccccc2Cl)c2c(N)ncnc21 [GSK2608885A] | – | – | – | – | – | – | – | – | – | – | – | – | – | – | 27.6 | 29.0 | 29.1 | 5830 | 6021 | 5398 | effect (intracellular MRSA; [11]): No; hit (intracellular MRSA; [9]): No; z-scoreMRSA+ mean (intracellular MRSA; PKIS compound screen): 0.34; z-scoreMRSA+ rep 1 (intracellular MRSA; PKIS compound screen): 0.11; z-scoreMRSA+ rep 2 (intracellular MRSA; PKIS compound screen): 0.57; z-scoreMRSA+ rep 3 (intracellular MRSA; PKIS compound screen): 0.34; cell death (HeLa cells; [11]): No; z-scoreHeLa mean (HeLa cells; PKIS compound screen): -0.08; z-scoreHeLa rep 1 (HeLa cells; PKIS compound screen): -0.13; z-scoreHeLa rep 2 (HeLa cells; PKIS compound screen): 0.00891; z-scoreHeLa rep 3 (HeLa cells; PKIS compound screen): -0.13
7 | COc1cccc(CC(=O)N2CCc3cc(-c4cn(C)c5ncnc(N)c45)ccc32)c1 [GSK2608899A] | 26.6 | 25.5 | 23.7 | No | No | 0.49 | 0.31 | 0.70 | 0.45 | No | -1.14 | -0.91 | -1.24 | -1.27 | – | – | – | – | – | – | cell count rep 1 (HeLa cells; [4]): 3096; cell count rep 2 (HeLa cells; [4]): 2695; cell count rep 3 (HeLa cells; [4]): 3225
8 | Cn1cc(-c2ccc3c(c2)CCN3C(=O)Cc2cc(F)cc(F)c2F)c2c(N)ncnc21 [GSK2634140A] | 26.0 | 26.7 | 24.3 | No | No | 0.60 | 0.17 | 0.99 | 0.63 | No | -1.47 | -1.44 | -1.35 | -1.61 | – | – | – | – | – | – | cell count rep 1 (HeLa cells; [4]): 2359; cell count rep 2 (HeLa cells; [4]): 2548; cell count rep 3 (HeLa cells; [4]): 2693
9 | Cn1cc(-c2ccc3c(c2)CCN3C(=O)Cc2cc(F)cc(C(F)(F)F)c2)c2c(N)ncnc21 [GSK2635225A] | 22.6 | 22.9 | 20.1 | No | No | -0.39 | -0.62 | 0.07 | -0.63 | No | -0.02 | 0.31 | -0.0088 | -0.36 | – | – | – | – | – | – | cell count rep 1 (HeLa cells; [4]): 4783; cell count rep 2 (HeLa cells; [4]): 4290; cell count rep 3 (HeLa cells; [4]): 4665
10 | c1ccc(Cn2ncc3cc(Nc4ncnc5ccccc45)ccc32)cc1 [GW273749A] | – | – | – | – | – | – | – | – | – | – | – | – | – | – | 26.5 | 27.8 | 28.8 | 9337 | 8148 | 8467 | effect (intracellular MRSA; [11]): No; hit (intracellular MRSA; [9]): No; z-scoreMRSA+ mean (intracellular MRSA; PKIS compound screen): 0.17; z-scoreMRSA+ rep 1 (intracellular MRSA; PKIS compound screen): -0.11; z-scoreMRSA+ rep 2 (intracellular MRSA; PKIS compound screen): 0.34; z-scoreMRSA+ rep 3 (intracellular MRSA; PKIS compound screen): 0.28; cell death (HeLa cells; [11]): No; z-scoreHeLa mean (HeLa cells; PKIS compound screen): 1.74; z-scoreHeLa rep 1 (HeLa cells; PKIS compound screen): 1.98; z-scoreHeLa rep 2 (HeLa cells; PKIS compound screen): 1.42; z-scoreHeLa rep 3 (HeLa cells; PKIS compound screen): 1.82
11 | Cc1ccc2c(c1)C(=NNc1ccc(S(N)(=O)=O)cc1)C(=O)N2 [GW275944X] | – | – | – | No | No | -0.10 | 0.33 | 0.27 | -0.91 | No | -0.43 | -1.23 | 0.11 | -0.16 | 14.2 | 14.3 | 12.8 | 3417 | 4418 | 6627 | –
12 | CS(=O)(=O)Nc1ccc(N/C=C2\C(=O)Nc3ccccc32)cc1 [GW278681X] | – | – | – | No | No | -0.46 | -0.41 | 0.07 | -1.03 | No | -0.10 | -0.47 | 0.34 | -0.16 | 11.9 | 13.7 | 12.4 | 4258 | 4720 | 6630 | –
13 | Cc1cc(Cl)cc2c1NC(=O)C2=NNc1ccc(S(N)(=O)=O)cc1 [GW279320X] | – | – | – | – | – | – | – | – | – | – | – | – | – | – | 28.1 | 30.5 | 29.7 | 5783 | 6163 | 10033 | effect (intracellular MRSA; [11]): No; hit (intracellular MRSA; [9]): No; z-scoreMRSA+ mean (intracellular MRSA; PKIS compound screen): 4.85; z-scoreMRSA+ rep 1 (intracellular MRSA; PKIS compound screen): 4.78; z-scoreMRSA+ rep 2 (intracellular MRSA; PKIS compound screen): 5.69; z-scoreMRSA+ rep 3 (intracellular MRSA; PKIS compound screen): 4.09; cell death (HeLa cells; [11]): No; z-scoreHeLa mean (HeLa cells; PKIS compound screen): 1.27; z-scoreHeLa rep 1 (HeLa cells; PKIS compound screen): 0.91; z-scoreHeLa rep 2 (HeLa cells; PKIS compound screen): 1.43; z-scoreHeLa rep 3 (HeLa cells; PKIS compound screen): 1.47
